Experimental data published in publication PMC11272598, “RG7774 (Vicasinabin), an orally bioavailable cannabinoid receptor 2 (CB2R) agonist, decreases retinal vascular permeability, leukocyte adhesion, and ocular inflammation in animal models” (Frontiers in Pharmacology, 2024).

What was measured:
endogenous CB2R [1] = molecular target: T1, endogenous CB2R (Homo sapiens, UniProt P34972); assay: pERK assay in Jurkat cells; type: cell-based
T1 construct: endogenous CB2R in human Jurkat cells; endogenous in cells; host or cells: Jurkat cells
T1 sequence (P34972 whole entry): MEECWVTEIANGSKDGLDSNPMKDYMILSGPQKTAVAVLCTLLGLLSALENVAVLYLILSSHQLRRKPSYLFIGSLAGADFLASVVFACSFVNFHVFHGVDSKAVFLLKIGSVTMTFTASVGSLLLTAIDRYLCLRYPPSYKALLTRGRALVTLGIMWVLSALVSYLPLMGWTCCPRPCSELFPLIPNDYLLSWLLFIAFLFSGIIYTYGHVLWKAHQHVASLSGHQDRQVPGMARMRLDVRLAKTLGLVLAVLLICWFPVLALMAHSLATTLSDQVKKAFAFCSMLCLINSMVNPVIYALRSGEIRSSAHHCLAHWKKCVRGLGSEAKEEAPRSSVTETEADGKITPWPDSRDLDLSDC
Protocol: ERK phosphorylation in response to RG7774 treatment was measured in Jurkat cells as described in ([Saroz et al., 2019]) using the AlphaLISA SureFire Ultra p-Erk1/2 assay (PerkinElmer, Waltham, MA, United States). Cells (200,000 per 96 well plate) were seeded in 40 μL RPMI 1640 assay medium (Fisher Scientific, Schwerte, Germany) containing 10% FCS, 2 mM L-Glu, and 25 mM HEPES) and incubated for 1 h at 37°C in 5% CO2. Cells were treated with increasing concentrations of RG7774 in 40 μL assay medium. Plates were shaken for 30 s (sec) at 450 rpm, incubated for 2 min at 37°C in 5% CO2, and placed on ice. Ice-cold lysis buffer (20 μL 5x) (supplied with the assay kit) was added, plates were shaken (500 rpm) for 10 min at 4°C, and 10 μL of lysate was transferred to a 384-well Optiplate (PerkinElmer, Waltham, MA, United States). The AlphaLISA assay was performed according to the manufacturer’s protocol. Plates were read using Tecan Infinite M1000Pro (excitation 680 nm for 100 ms, integration time 300 ms, and emission 615 nm).

endogenous CB2R [2] = molecular target: T1, endogenous CB2R; assay: Forskolin-stimulated cAMP in Jurkat cells; type: cell-based; conditions: data not shown
P-gp [3] = molecular target: T2, P-gp (Homo sapiens, UniProt P08183); assay: P-gp assay in transfected LLC-PK1 cells; type: in vitro ADME
T2 construct: host or cells: LLC-PK1 (porcine kidney epithelial) cells
T2 sequence (P08183 whole entry): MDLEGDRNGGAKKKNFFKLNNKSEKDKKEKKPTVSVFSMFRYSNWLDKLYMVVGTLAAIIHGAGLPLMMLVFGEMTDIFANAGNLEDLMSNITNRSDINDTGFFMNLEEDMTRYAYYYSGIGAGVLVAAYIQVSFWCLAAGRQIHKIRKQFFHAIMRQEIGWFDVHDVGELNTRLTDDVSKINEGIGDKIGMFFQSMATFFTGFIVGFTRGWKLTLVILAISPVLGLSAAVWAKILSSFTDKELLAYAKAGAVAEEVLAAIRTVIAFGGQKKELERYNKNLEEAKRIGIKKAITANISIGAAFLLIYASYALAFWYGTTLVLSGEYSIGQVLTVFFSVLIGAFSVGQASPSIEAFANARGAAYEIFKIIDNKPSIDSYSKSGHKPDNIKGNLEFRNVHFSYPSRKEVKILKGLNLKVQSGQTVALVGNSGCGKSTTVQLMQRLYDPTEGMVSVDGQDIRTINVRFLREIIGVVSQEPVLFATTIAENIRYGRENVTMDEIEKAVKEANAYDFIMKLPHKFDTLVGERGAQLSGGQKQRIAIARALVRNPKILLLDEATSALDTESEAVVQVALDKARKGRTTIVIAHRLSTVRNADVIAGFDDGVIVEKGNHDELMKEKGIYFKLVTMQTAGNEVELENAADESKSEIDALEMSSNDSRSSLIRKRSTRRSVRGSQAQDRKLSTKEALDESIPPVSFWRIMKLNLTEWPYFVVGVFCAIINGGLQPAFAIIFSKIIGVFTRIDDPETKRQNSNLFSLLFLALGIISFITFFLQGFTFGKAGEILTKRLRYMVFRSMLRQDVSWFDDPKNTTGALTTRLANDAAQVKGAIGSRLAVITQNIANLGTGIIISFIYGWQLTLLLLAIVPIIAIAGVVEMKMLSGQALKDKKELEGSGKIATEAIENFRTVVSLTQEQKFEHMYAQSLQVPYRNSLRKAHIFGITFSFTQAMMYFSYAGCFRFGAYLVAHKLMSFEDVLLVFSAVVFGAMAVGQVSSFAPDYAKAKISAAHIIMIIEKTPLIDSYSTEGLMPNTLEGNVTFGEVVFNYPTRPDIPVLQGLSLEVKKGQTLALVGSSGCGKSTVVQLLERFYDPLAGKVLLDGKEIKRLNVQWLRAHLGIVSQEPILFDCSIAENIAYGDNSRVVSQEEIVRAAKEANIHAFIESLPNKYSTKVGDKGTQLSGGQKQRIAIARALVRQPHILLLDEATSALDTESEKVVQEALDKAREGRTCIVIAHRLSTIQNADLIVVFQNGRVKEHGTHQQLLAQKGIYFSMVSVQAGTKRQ
Protocol: (§1) The P-gp assay was conducted as previously described. Briefly, transfected porcine kidney epithelial (LLC-PK1) cells expressing human or mouse P-gp were cultured on 96-well semi-permeable filter membrane plates (Millipore, Darmstadt, Germany). LLC-PK1 cells were provided by Dr A. Schinkel from The Netherlands Cancer Institute (Amsterdam, The Netherlands). Cells formed a polarized monolayer with tight junctions that acted as a barrier between apical and basolateral compartments. P-gp was expressed in the apical-facing membrane of the monolayer (tightness confirmed using Lucifer yellow). […] The effect of P-gp was measured by expressing the efflux ratio of the unidirectional A > B and B > A Papp values. The mean permeability (A > B and B > A Papp) was determined in the absence of P-gp via the addition of the selective P-gp inhibitor, zosuquidar.

P-gp [4] = molecular target: T3, P-gp (Mus musculus, UniProt P21447); assay: P-gp assay in transfected LLC-PK1 cells; type: in vitro ADME
T3 construct: host or cells: LLC-PK1 (porcine kidney epithelial) cells
T3 sequence (P21447 whole entry): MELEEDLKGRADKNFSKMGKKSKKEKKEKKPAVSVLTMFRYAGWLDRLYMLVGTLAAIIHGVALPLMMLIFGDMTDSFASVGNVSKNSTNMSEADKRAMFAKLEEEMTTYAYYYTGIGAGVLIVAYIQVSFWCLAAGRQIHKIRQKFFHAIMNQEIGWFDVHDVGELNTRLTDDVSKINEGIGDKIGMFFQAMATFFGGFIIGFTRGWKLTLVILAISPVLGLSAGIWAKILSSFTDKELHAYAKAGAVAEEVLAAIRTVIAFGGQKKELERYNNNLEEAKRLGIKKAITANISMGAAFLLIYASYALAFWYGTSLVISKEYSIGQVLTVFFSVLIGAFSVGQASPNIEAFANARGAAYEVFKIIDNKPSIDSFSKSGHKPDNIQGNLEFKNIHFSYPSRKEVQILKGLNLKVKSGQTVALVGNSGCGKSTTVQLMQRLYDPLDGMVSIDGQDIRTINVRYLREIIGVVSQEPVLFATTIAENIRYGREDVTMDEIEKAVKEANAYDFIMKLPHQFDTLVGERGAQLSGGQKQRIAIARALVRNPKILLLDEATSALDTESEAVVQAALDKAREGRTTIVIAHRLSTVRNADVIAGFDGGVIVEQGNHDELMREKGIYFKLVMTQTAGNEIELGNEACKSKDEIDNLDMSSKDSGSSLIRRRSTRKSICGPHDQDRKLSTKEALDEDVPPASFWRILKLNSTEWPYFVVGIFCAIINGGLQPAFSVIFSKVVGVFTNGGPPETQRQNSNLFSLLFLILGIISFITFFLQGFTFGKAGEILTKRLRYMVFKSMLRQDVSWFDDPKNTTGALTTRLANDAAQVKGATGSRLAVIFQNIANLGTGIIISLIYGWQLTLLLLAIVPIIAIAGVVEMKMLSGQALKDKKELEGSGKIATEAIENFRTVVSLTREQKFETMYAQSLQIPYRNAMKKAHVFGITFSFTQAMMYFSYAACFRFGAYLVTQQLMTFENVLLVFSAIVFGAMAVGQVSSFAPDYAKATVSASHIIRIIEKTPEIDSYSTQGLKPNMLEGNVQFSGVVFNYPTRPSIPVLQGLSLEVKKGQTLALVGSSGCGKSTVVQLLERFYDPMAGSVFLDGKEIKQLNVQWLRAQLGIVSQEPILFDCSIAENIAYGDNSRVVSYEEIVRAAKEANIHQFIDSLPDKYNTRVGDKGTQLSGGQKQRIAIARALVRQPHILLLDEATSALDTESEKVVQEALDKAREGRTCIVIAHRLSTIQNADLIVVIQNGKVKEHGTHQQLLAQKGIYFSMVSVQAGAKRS
Protocol: as §1

[5] = Brain:plasma ratio after oral administration (GLP toxicology studies, data on file); type: in vivo; conditions: rat, rats, read-out: Mean brain:plasma ratios
[6] = test system: LPS-induced leukocyte adhesion; assay: LPS-induced leukocyte adhesion in mice with EIU (IVM); type: in vivo, BALB/c mice; conditions: 6 h after LPS
Protocol: Male BALB/c mice aged 8–10 weeks and weighing 21–26 g (Charles River, QC, Canada) were housed in individually ventilated Allentown cages (Allentown Inc., NJ, United States). Maximum density was n = 5 per cage, with the same litter and sex. Male Lewis rats aged 7–10 weeks and weighing 200–300 g (Charles River, QC, Canada) were housed in static cages (Allentown Inc., NJ, United States), n = 2 per cage with the same litter and sex. Both mice and rats were maintained in a controlled environment (21°C–22°C, humidity range 40%–60%, and a 12 h light/dark cycle), with unrestricted access to food and water. All experiments were conducted in accordance with the standards and procedures of the Canadian Council on Animal Care ([CCAC, 2024]) and were approved by the Dalhousie University Committee on Laboratory Animals. The protocol #13-027 was approved for experimental work in mice. […] All experiments were performed and are reported in accordance with the ARRIVE guidelines ([Kilkenny et al., 2010]; [McGrath et al., 2010]).
Mice and rats were anesthetized with 5% isoflurane in 100% O2 and intraperitoneal (IP) injection of sodium pentobarbital (65 mg/kg), respectively, before receiving IVT injections of sterile 0.9% saline solution (control) or 125 ng/μL LPS (L8274, Sigma-Aldrich, St. Louis, MO, United States) diluted in 0.9% saline. Injections were administered through the pars plana using a 30-gauge needle and Hamilton syringe (Hamilton Company, Reno, NV, United States) with the assistance of a WILD M37 dissecting microscope (Leitz Canada, Vaughan, ON, Canada). Mice received 2 μL of the LPS solution; rats received 5 μL. To avoid touching the lens or damaging the eye, the tip of the needle was directed toward the posterior pole and only the beveled tip (2–3 mm) was allowed to enter the vitreal cavity. […]
IVM was used for in vivo investigations of LPS-induced leukocyte recruitment as previously described ([Toguri et al., 2014]). […] The depth of anesthesia throughout the procedure was assessed by the absence of a toe-pinch reflex. […]

Cn1nnnc1Cn1nnc2c(N3CC[C@H](O)C3)nc(C(C)(C)C)nc21 [RG7774, (S)-1-(5-tert-butyl-3-[(1-methyl-1H-tetrazol-5-yl)methyl]-3H-[1,2,3]triazolo[4,5-d]pyrimidin-7-yl)pyrrolidin-3-ol]
EC50 (endogenous CB2R [1]): 0.0385 ± 0.015 µM
inhibition of forskolin-stimulated intracellular cAMP levels in Jurkat cells (endogenous CB2R [2]): did not inhibit
efflux ratio at 3 h (P-gp [3]): 2.5
efflux ratio at 3 h (P-gp [4]): 16.2
Kp [5]: 0.0955 to 0.213
decrease in leukocyte adhesion compared to vehicle control ([6]; single IV 0.03 mg/kg): 21%
decrease in leukocyte adhesion compared to vehicle control ([6]; single IV 0.3 mg/kg): 65%
decrease in leukocyte adhesion compared to vehicle control ([6]; single IV 3 mg/kg): 82%
